{"source": "patent US20120220594A1", "about": "“METHODS FOR TREATING CANCER IN PATIENTS HAVING IGF-1R INHIBITOR RESISTANCE” (Bristol-Meyers Squibb Company, priority 2009, published 2012)", "test_system": "Rh41-807R cells", "details": "1:1 ratio, Combination Index less than 1 indicates synergy", "text": "A dilution of ratios drug combination method was used in cellular proliferation assays to test the IC50 values of single agent (A or B) as well as in combination (a or b). […] Combination Index=(a/A+b/B).", "data": [{"smiles": "Cc1ccc(NC(=O)c2ccc(CN3CCN(C)CC3)cc2)cc1Nc1nccc(-c2cccnc2)n1", "note": "[imatinib]", "values": [{"measurement": "activity in growth inhibition in combination with BMS-754807", "result": "synergistic activity"}]}]}
